Results as given in patent US8026342B2, “Compositions and methods for binding sphingosine-1-phosphate” (Lpath, Inc., priority 2006, dated 2011).
Where “and” joins values, the source holds several entries; their conditions need not be identical. Equal entries are not always repeated.

Assays:
HT29 tumor = experiment: SC HT29 colorectal tumor xenograft; format: in vivo, athymic NCr-nu/nu mice; settings: LT1009 50 mg/kg ip q2d; Avastin 20 mg/kg iv q4d; 5-FU 75 mg/kg ip q4d
Description: Nude mice were implanted sc near the right flank with one fragment per mouse of HT29 tumor from an in vivo passage. All treatments were initiated the day when 60 mice in each experiment established tumors ranging in size from approximately 100 to 200 mm^3. There were ten mice per treatment group. […] 75 mg/kg 5-FU and 20 mg/kg Avastin were administered ip and iv at a dosage of 75 mg/kg/dose and 20 mg/kg/dose, respectively, q4d, injected in a volume of 0.1 mL/10 g body weight.
(§1) Animals were observed daily for mortality. Tumor dimensions and body weights were collected twice weekly starting with the first day of treatment and including the day of study termination. When the median tumor in the vehicle-treated control group in each study reached approximately 4,000 mg, the study was terminated. Tumors from each animal were harvested, wet weights were recorded, and tumors were processed for determination of MVD by CD-31 staining. Tumor weights (mg) were calculated using the equation for an ellipsoid sphere (l×w^2)/2=mm^3, where l and w refer to the larger and smaller dimensions collected at each measurement and assuming unit density (1 mm^3=1 mg).

RPMI 8226 tumor = experiment: RPMI 8226 human myeloma tumor xenograft; format: in vivo, CB17 SCID mice; settings: LT1009 50 mg/kg IP Q3D to end; Bortezomib iv Q3D×6
Description: Nude mice (CB17 SCID, aged 4-5 weeks, weight 18-22 gm, female mice obtained from Harlan) were injected sc with RPMI 8226 cells harvested from tissue culture (˜1×10^7 cells/mouse). When tumors grew to approximately 100 mm^3 in size, animals were pair-matched by tumor size into treatment and control groups (10 mice per group). Initial dosing began Day 1 following pair-matching. Animals in all groups were dosed by weight (0.01 ml per gram; 10 ml/kg). […] Bortezomib was administered by intravenous injection via tail vein once every three days for six treatments (Q3D×6).
Individual and group mean tumor volumes±SEM are recorded twice weekly until study completion beginning Day 1. Final mean tumor volume±SEM for each group are reported at study completion; animals experiencing partial or complete tumor regressions or animals experiencing technical or drug-related deaths are censored from these calculations.

[1] = system: experimental autoimmune encephalomyelitis; settings: 0.1 mg/kg p.o. or higher doses; cited from earlier work
peripheral lymphocytes = settings: single oral dose; cited from earlier work
COLO205 tumor = experiment: SC COLO205 colorectal tumor xenograft; format: in vivo, nude NCr (nu/nu) mice; settings: LT1009 50 mg/kg ip q3d; Avastin 40 mg/kg iv q7d; Paclitaxel 15 mg/kg iv q1d×5
Description: Nude mice were implanted sc near the right flank with one fragment per mouse of COLO 205 tumor from an in vivo passage. All treatments were initiated the day when 60 mice in each experiment established tumors ranging in size from approximately 100 to 200 mm3. […] Avastin was administered iv at a dosage of 40 mg/kg/dose on a q7d schedule, injected in a volume of 0.1 mL/20 g body weight. Paclitaxel (positive control), was administered iv at a dosage of 15 mg/kg/dose on a q1d×5 schedule, injected in a volume of 0.1 mL/10 g body weight.
as §1, with “recorded,” for “recorded, and”, “microvascular densities (MVD)” for “MVD”

DU145 tumor = experiment: SC DU145 prostate tumor xenograft; format: in vivo, nude NCr (nu/nu) mice; settings: LT1009 50 mg/kg ip q2d; Avastin 20 mg/kg q4d; Paclitaxel 7.5 mg/kg q1d×5
Description: Nude mice were implanted sc near the right flank with one fragment per mouse of DU145 tumor from an in vivo passage. All treatments were initiated the day when 60 mice in each experiment established tumors ranging in size from approximately 100 to 200 mm^3. […] Paclitaxel and Avastin were administered iv and ip at a dosage of 7.5 mg/kg/dose and 20 mg/kg/dose, q1d×5 and q4d, respectively, injected in a volume of 0.1 mL/10 g body weight.
During the course of the study tumor growth was monitored by measuring the sc tumors on three axes and calculating the volume. At the end of the study final tumor weights and volumes were determined and then the mice were sacrificed, the tumors harvested. Microvascular densities (MVD) of the tumors were then determined by CD-31 staining.

HUVECs = experiment: HUVEC Matrigel chemoinvasion (migration) assay; format: cell-based, human; settings: 0.1-1 μM S1P
Description: FIG. 5 has two panels, A and B. In panel A, S1P is shown to promote neovascularization through induction of HUVECs tube formation and migration, which is reduced by SPHINGOMAB. […] The number of cells that migrated to the Matrigel membrane were counted in five independent fields.
Experiments were performed as described by Visentin et al. (Cancer Cell 2006 March; 9(3):225-38).

[2] = system: Matrigel plug neovascularization; experiment: In vivo Matrigel plug assay for neovascularization (S1P, VEGF, bFGF); set-up: species or system mice; settings: Matrigel with 1 μM S1P
Description: Based on in vivo studies showing that S1P increased endothelial capillary growth into subcutaneously implanted Matrigel plugs, we speculated that SPHINGOMAB could reduce de novo BV formation in vivo. To investigate this, we employed the in vivo Matrigel Plug assay for neovascularization. In one set of experiments, Matrigel was supplemented with either 1 μM S1P, 0.5 μg/mL bFGF or 1 μg/mL VEGF and then […]. into mice (n=4). After 10 days, the mice were heparinized and injected with the fluorescent lectin, Isolectin B4-FITC, which binds to adhesion molecules expressed by vascular EC that form the growing BVs. The plugs were then excised, frozen in OCT, sectioned and viewed for FITC-stained BVs.
Sections of the plugs were then stained with hemotoxyln & eosin for evaluation of EC infiltration (FIG. 6B). The infiltration of ECs is a critical step in neo-vascularization. […] Cell infiltration is presumed to be ECs although we recognize that other cell types such as immune cells may also be stained.
Endogenous S1P from the blood and surrounding tissue could supply a wound with pro-angiogenic stimuli. The ability of SPHINGOMAB to reduce endogenous S1P in a wound was investigated. Optimally stimulated plugs (Matrigel supplemented with 0.5 μg/mL bFGF or […] VEGF) were implanted into mice. Mice received i.p. injections of 25 mg/kg SPHINGOMAB or saline every 48 hrs starting 1 day prior to Matrigel implantation. Each treatment group (Matrigel, Matrigel plus GF or Matrigel plus GF and administered SPHINGOMAB) consisted of a minimum of 6 mice. After 10 days, the mice were treated with heparin, injected with Isolectin B4-FITC, the plugs excised, embedded in OCT freezing medium and sectioned.

[3] = system: human retinal pigmented epithelial cells; experiment: alpha-SMA expression (myofibroblast transformation) in retinal pigmented epithelial cells; format: cell-based
Description: (§2) In many of these disorders, circulating growth factors and chemokines promote the transformation of normal ocular cells into fibrocontractile, scar tissue-producing cells that have been termed “myofibroblasts”. Normally, myofibroblasts are responsible for tissue repair as part of the wound healing response following injury. However altered number and function of myofibroblasts are implicated in diseases characterized by pathological scar tissue formation in the liver, skin, lung, kidney, heart and eyes. In the eye, transformation of retinal pigmented epithelial (RPE) cells to a myofibroblast phenotype is linked to formation of fibro-contractile membranes which cause retinal detachment and subsequent vision impairment. In addition, myofibroblast transformation of ocular fibroblasts can result in abnormal scar tissue production after eye injury leading to subsequent vision loss. Although many of the circulating protein factors in the eye that promote myofibroblast formation have been identified, nothing is known regarding the role of lysolipids such as S1P in this process. Therefore, we examined the effects of S1P on myofibroblast transformation of several human ocular cell lines.
In these experiments, the ability of S1P to promote α-SMA expression differed in a concentration dependent manner between the retinal pigmented epithelial cells and conjunctiva fibroblasts. […]

[4] = system: human conjunctiva fibroblasts; experiment: alpha-SMA and PAI-1 expression in conjunctiva fibroblasts; format: cell-based
Description: as §2
In these experiments, the ability of S1P to promote α-SMA expression differed in a concentration dependent manner between the retinal pigmented epithelial cells and conjunctiva fibroblasts. […] This difference is believed to result from increased S1P receptor expression in the epithelial cells compared to the fibroblasts. Due to increased S1P receptor expression levels, retinal pigmented epithelial cells are likely more sensitive to S1P at low concentrations. In contrast, at high S1P levels the receptors become […] or possibly even internalized leading to decreased stimulation by S1P.
Collagen is one of the primary structural proteins that supports all tissues in the body and is one of the main components of scar tissue. In the non-pathological setting, total collagen content within tissue is maintained via a balance between collagen production by fibroblasts and degradation by certain enzymes. […]

exudative AMD = settings: 2 year MARINA trial and 1 year ANCHOR trial; cited from earlier work

Molecule: O=c1[nH]cc(F)c(=O)[nH]1 [5-FU, 5-fluorouracil]
- % Reduction compared to Vehicle-Treated Mice (HT29 tumor): 28%
- Final Tumor Weights (HT29 tumor): 1963.71 mg

Molecule: CC(C)C[C@H](NC(=O)[C@H](Cc1ccccc1)NC(=O)c1cnccn1)B(O)O [Bortezomib, reference compound]
- % Reduction compared to Vehicle-Treated Mice (RPMI 8226 tumor): 20%
- Final Tumor Weights (RPMI 8226 tumor): 1664 mg

Molecule: CCCCCCCCc1ccc(CCC(N)(CO)CO)cc1.Cl [FTY720, 2-amino-2-(2-[4-octylphenyl]ethyl)-1,3-propanediol hydrochloride]
- paralysis in EAE [1]: almost completely prevents paralysis
- reduction of peripheral lymphocyte counts (peripheral lymphocytes): 30-70%

Molecule: CC(=O)O[C@H]1C(=O)[C@@]2(C)[C@H]([C@H](OC(=O)c3ccccc3)[C@]3(O)C[C@H](OC(=O)[C@H](O)[C@@H](NC(=O)c4ccccc4)c4ccccc4)C(C)=C1C3(C)C)[C@]1(OC(C)=O)CO[C@@H]1C[C@@H]2O [Paclitaxel]
- % Reduction compared to Vehicle-Treated Mice (COLO205 tumor): 100%
- Final Tumor Weights (COLO205 tumor): 0 mg
- % Reduction compared to Vehicle-Treated Mice (DU145 tumor): 80%
- Final Tumor Weights (DU145 tumor): 539 mg

Molecule: CCCCCCCCCCCCC/C=C/[C@@H](O)[C@@H](N)COP(=O)(O)O [S1P, sphingosine-1-phosphate]
- stimulation of HUVEC migration over non-treated HUVECs (HUVECs): 2-2.5 fold
- increase of EC infiltration in comparison to Matrigel only plugs [2]: 3 fold
- S1P concentration at which a significant increase in α-SMA expression was observed [3]: 0.001 µM
- production of α-Smooth muscle actin (α-SMA) [3]: stimulates production
- PAI-1 expression [4]: stimulates the PAI-1 expression in a dose-dependent manner
- S1P concentration at which a significant increase in α-SMA expression was observed [4]: 10 µM
- production of α-Smooth muscle actin (α-SMA) [4]: stimulates production

Molecule: Avastin: anti-angiogenic drug, bevacizumab (Avastin, Genentech)
- % Reduction compared to Vehicle-Treated Mice (COLO205 tumor): 35%
- Final Tumor Weights (COLO205 tumor): 1967.90 mg
- % Reduction compared to Vehicle-Treated Mice (HT29 tumor): 30%
- Final Tumor Weights (HT29 tumor): 1927.44 mg
- % Reduction compared to Vehicle-Treated Mice (DU145 tumor): 80% and 79%
- Final Tumor Weights (DU145 tumor): 578 mg

B1: RANIBIZUMAB: antibody fragment inhibiting all isoforms of VEGF-A (antibody, chains of the INN, looked up, V domains shown)
VH: EVQLVESGGGLVQPGGSLRLSCAASGYDFTHYGMNWVRQAPGKGLEWVGWINTYTGEPTYAADFKRRFTFSLDTSKSTAYLQMNSLRAEDTAVYYCAKYPYYYGTSHWYFDVWGQGTLVTVSS
VL: DIQLTQSPSSLSASVGDRVTITCSASQDISNYLNWYQQKPGKAPKVLIYFTSSLHSGVPSRFSGSGSGTDFTLTISSLQPEDFATYYCQQYSTVPWTFGQGTKVEIK
modifications: Fab
- patients achieving some visual gain (exudative AMD): approximately 40%
